Where no end group is shown, it is not given here.
Experiments:
BAK1 gene [1] = assay: BAK1 gene expression in roots (semi-quantitative RT-PCR and qRT-PCR); assay type: in vivo, Arabidopsis thaliana; conditions: 1 μM, 1 h, Arabidopsis seedlings
Description: Arabidopsis plants were grown for 10 days in vertical plates and then treated in liquid medium containing 1 μM AtRALF1 for 1 h at room temperature. Control plants were incubated under identical conditions in a peptide-free medium. The total RNA was isolated from the roots of Arabidopsis plants using TRIzol reagent according to the manufacturer’s instructions (Life Technologies). The cDNA was synthesized using the ImProm-II Reverse Transcription System (Promega) and 1 μg of RNA. An aliquot of cDNA (1.5 μl) was used as the template in the PCR reaction, which was performed for 29 cycles, unless indicated otherwise, using gene-specific primers (S1 Table). The glyceraldehyde 3-phosphate dehydrogenase (GAPDH) gene was used as an internal control. All experiments were repeated at least three times with independent biological replicates. The data shown are from one representative experiment.
The qRT-PCR analysis was performed using 10-fold-diluted cDNA, Maxima SYBR Green Rox/qPCR Master Mix (Thermo Scientific) and a StepOne Real-Time PCR System (Applied Biosystems). The glyceraldehyde 3-phosphate dehydrogenase (GAPDH) gene was used as an internal control. […] The threshold cycle (CT) was determined by the instrument, and the ΔΔCT method was used to calculate the fold change in each gene. […] Three replicates were analyzed for each biological sample, and two biological samples were analyzed. […]

[2] = system: AtPRP3, AtHRGP2, CPD and DWF4 genes; conditions: cited from earlier work
Text: AtRALF1-overexpressing plants are less sensitive to exogenous brassinosteroids (BRs). […] AtRALF1 also induces two cytochrome P450 monooxygenase genes related to the BR biosynthetic pathway: Constitutive Photomorphism and Dwarfism (CPD) and DWARF4 (DWF4). We exposed the bak1 mutants to the same concentration of AtRALF1 and evaluated the capacity to induce the AtPRP3, AtHRGP2, CPD and DWF4 genes. None of the AtRALF1-inducible genes were ...

[3] = system: cytosolic Ca^2+ in Arabidopsis seedlings; conditions: from extra- and intracellular stores; ref [1],[11]; cited from earlier work
BAK1 gene [4] = conditions: Arabidopsis plants; ref [10]; cited from earlier work
Text: It has been previously shown through microarray experiments that the treatment of Arabidopsis plants with AtRALF1 causes BAK1 gene induction by approximately 1.56-fold. Our data are consistent with that previous observation and add a new gene to the list of AtRALF1-inducible genes. […] The fact that AtRALF1 peptide and BL treatment both induce BAK1 gene expression provides further evidence that BAK1 ...

BAK1-GFP = assay: Co-immunoprecipitation with microsomal fraction of N. benthamiana leaves expressing BAK1-GFP; assay type: binding, Arabidopsis thaliana; conditions: 600 nM peptide, 1 h, 4 °C, anti-GFP antibody
Description: This assay was performed as previously described with some modifications. The BAK1 coding region was amplified from Arabidopsis genomic cDNA using standard PCR with the primers BAK1 Fw and BAK1 Rv (S1 Table). To generate the p35S-BAK1:GFP plasmid, the fragment was cloned into the pENTR D-TOPO vector and later transferred to the pk7FWG2 vector [56]. Leaves from N. benthamiana plants were agroinfiltrated with p19 vector alone and p19 co-expressed with p35S-BAK1:GFP, as previously described. After 3 days, leaves were homogenized in extraction buffer [300 mM sucrose, 100 mM Tris-HCl pH 7.5, 25 mM EDTA, 25 mM NaF, 1 mM Na2MoO4, 1 mM PMSF, 1 mM DTT and protease inhibitor cocktail (Roche), pH 6.2 adjusted] and centrifuged at 1,000 g for 10 min at 4°C, and the supernatant was then centrifuged at 100,000 g for 50 min at 4°C to precipitate the microsomal pellet. The pellet was resuspended in the extraction buffer plus 0.5% Triton-X and incubated with 600 nM recombinant AtRALF1 or 600 nM RALF1(I6A) for 1 h at 4°C. The complexes were incubated with anti-GFP antibody (Santa Cruz Biotechnology) and Sepharose Beads plus protein A (Life Technologies) overnight at 4°C. […] The AtRALF1/BAK1-GFP complex bound to the beads was eluted with denaturing in 10 μl of 1X loading buffer (NuPAGE LDS buffer) at 95°C for 8 min, then analyzed by SDS-PAGE. The proteins were detected as previously described.

[5] = ITC of AtRALF1 into buffer; assay type: physicochemical; conditions: AtRALF1 0.7 mM injected in 15 mM HEPES, pH 6.8, 25°C (S15A Fig)
Description: ITC was performed using a VP ITC with a 1.4 ml standard cell and a 293 μl titration syringe. Proteins were dissolved in ITC buffer (15 mM HEPES (4-(2-hydroxyethyl)-1-piperazineethanesulfonic acid, pH 6.8) and the experiments were performed at 25°C. Molar protein concentration for BAK1-ECD and AtRALF1 were calculated using their molecular weight of 25,654.04 and 7,631 Da, respectively (determined by HPLC). The concentrations for the complex titrations were 0.7 mM of protein (BAK1-ECD) in the syringe and 0.03 mM of ligand (AtRALF1) in the cell at time intervals of 300 s (28 injections of volume 10 μl) to ensure that the titration peak returned to the baseline.
Supplementary file pgen.1007053.s015.pdf: S15 Fig Isothermal titration calorimetry (ITC) of AtRALF1 and BAK1-ECD. (A) AtRALF1 in 15mM HEPES, pH 6.8. ITC experiments were simulated using the following parameters: 28 injections of AtRALF1 (0.7 mM, volume 10 μL) in HEPES (volume cell = 1.4 mL) at 25°C. (B) BAK1-ECD in 15mM HEPES, pH 6.8. ITC experiments were simulated using the following parameters: 28 injections of BAK1-ECD (0.7 mM, volume 10 μL) in HEPES (volume cell = 1.4 mL) at 25°C. (C) HEPES in AtRALF1. ITC experiments were simulated using the following parameters: 28 injections of buffer 15mM HEPES, pH 6.8 (volume 10 μL) in AtRALF1 (0.03 mM, volume cell = 1.4 mL) at 25°C. (PDF) Click here for additional data file.

**Q.** For “AtRALF1: root-specific RALF isoform in Arabidopsis; recombinant peptide hormone produced in E. coli (ATTKYISYQSLKRNSVPCSRRGASYYNCQNGAQANPYSRGCSKIARCRS; ends and bridges not checked; cysteine pairing not given here)”, which “BAK1 gene expression in roots” value (BAK1 gene [1]) is on record?
**A.** induced BAK1 gene expression in the roots up to levels found in untreated p35S:AtRALF1 roots

**Q.** And the “induction of AtPRP3 and AtHRGP2 genes” value ([2]; Arabidopsis seedling roots, ref [9])?
**A.** induces, in a dose-dependent manner

**Q.** And the “induction of CPD and DWF4 genes” value ([2]; ref [9])?
**A.** induces

**Q.** What about the AtEXPA5 expression ([2]; roots of treated seedlings, ref [16]–[18]) of the same substance?
**A.** repressed in the roots of AtRALF1-treated seedlings

**Q.** And the “cytoplasmic Ca^2+” value [3]?
**A.** rapid increase in cytoplasmic Ca^2+

**Q.** What about the “BAK1 gene induction (microarray)” value (BAK1 gene [4]) of the same substance?
**A.** approximately 1.56 -fold

**Q.** What about the “co-immunoprecipitation with BAK1-GFP” value (BAK1-GFP) of the same substance?
**A.** co-immunoprecipitated when the anti-GFP antibody was used

**Q.** And the heat of dissociation [5]?
**A.** exhibits heat of dissociation
